Test results taken from US20210346425A1, “BOTANICAL FILM-FORMING ACNE COMPOSITIONS” (priority 2018, published 2021).

Experiments:
[1] = Zone of inhibition test of salicylic acid and botanicals in FGZ base; assay type: cell-based; details: ingredients in FGZ base; test organism not given
Description: Various botanicals, salicylic acid and combinations were mixed in FGZ gel and antibacterial efficacy was evaluated.
Table 1: Antibacterial Activity of Salicylic Acid and Botanicals in FGZ Base (Zone of Inhibition Test)

S. aureus = assay: Rapid kill (15 seconds) suspension test, ASTM E2783-11; assay type: cell-based; details: 15 seconds contact, ingredient in FGZ gel, log 10 reduction of 3.0 or higher counts as effective
Description: Table 2: Antibacterial Activity (Rapidity of Kill Test Organism S. aureus)
Rapid kill (15 seconds) test tube method described in ASTM-E2783-1198751-1 (suspension test).
In vitro rapid-kill test was carried out according to ASTM E2783-11; 10^8 CFU mL^−1 microbial cultures were prepared in a TSA media in order to determine the antimicrobial activity of acne formulations. 0.9 mL acne formulation was kept in contact with 0.1 mL microbial cultures for 15 seconds and subsequently neutralized using agent DE. PBS was used as a control.

| Compound | Zone of inhibition (mm) [1] | Log reductrion from control growth (S. aureus) |
| --- | --- | --- |
| O=C(O)c1ccccc1O [Salicylic acid 2%, Salicylic acid] | 1 mm | 2.1 |
| [H]/N=C(\N/C(=N/[H])NCCCCCCNC(=N)NC(=N)Nc1ccc(Cl)cc1)Nc1ccc(Cl)cc1 [chlorhexidine gluconate] | – | 0.2 |
